Results published in patent US20080200507A1, “Crystalline Non-Solvated Methanesulfonic Acid Salt of 1-(4-(2-Piperidinylethoxy)Phenoxy)-2-(3-Hydroxyphenyl)-6-Hydroxynaphthalene” (priority 2005, published 2008).
Structures can show the parent of a compound that is named as a salt.

How the values were obtained:
[1] = In situ salt screening, aqueous in situ solubility; type: physicochemical; conditions: crystalline salts
From the text: In general, as aqueous solubility increases, the potential for absorption of the drug in the gut (and ultimate bioavailability) increases as well. Higher bioavailability can result in lower variability in clinical exposure and thus give the physician an advantage in correctly dosing-the patient within the therapeutic window. Using the aqueous in situ solubility as a guide, and the robustness of the same crystalline form isolated via automation, the crystalline mesylate, lactate, tartrate and phosphate salts of GS II were identified as candidates for further evaluation. Separately, the crystalline acetate salt of GS II was identified and also further characterized.

[2] = molecular target: endogenous ER receptors in Ishikawa human endometrial tumor cells (Homo sapiens, UniProt P03372); assay: Ishikawa Cell Proliferation Assay (alkaline phosphatase endpoint), agonist and antagonist mode; type: cell-based; conditions: read-out: agonist response (percentage efficacy versus tamoxifen)
Experimental: Ishikawa Cell Proliferation Assay:
This assay measures cell proliferation in both an agonist mode in the presence of a salt of the present invention alone, and in an antagonist mode in which the ability of a salt of the present invention to block estradiol stimulation of growth is measured. This assay utilizes Ishikawa human endometrial tumor cells and measures agonist and antagonist effects on endogenous ER receptors via an alkaline phosphatase endpoint (Littlefield et al., Endocrinology, 127:2757-2762, 1990). Alkaline phosphatase activity is measured as an endpoint for relative estrogenic stimuli in both an agonist mode and antagonist mode, where the ability of a test compound to block estradiol stimulatory activity is measured (Bramlett, K S, Burris, J., Steroid Biochem. Molec. Biol., 86:27-34, 2003). […]
The plates are dried for 5 minutes and frozen at −70° C. for at least 1 hour. […] After a twenty minute incubation, plates are read on a spectrophotometer at 405 nm. […] For the agonist mode, a percentage efficacy for the test compound is calculated versus the response to 100 nM tamoxifen alkaline phosphatase stimulation as: 100×(test compound-control)/(tamoxifen-control). For the antagonist mode, a percentage efficacy for the test compound is calculated versus E2 (1 nM) alone as: 100×(E2-test compound)/(E2-control).

[3] = test system: estrogen-induced response (uterine weight/body weight ratio) in female Sprague Dawley (SD) rats; assay: 3-Day Rat Uterine Antagonist; type: in vivo; conditions: 72 h, oral, 3 days, with EE 0.1 mg/kg, two assays, same value on both occasions, read-out: ED50 (inhibition of estrogen-induced uterine weight response)
Experimental: 3-Day Rat Uterine Antagonist
Female Sprague Dawley (SD) rats, 6 per group and 19 to 21 days of age, are orally treated with ethinyl estradiol (EE; 0.1 mg/kg) and 10, 1, 0.1, or 0.01 mg/kg test compound for 3 days. Test compound is dissolved in 20% w/v β-hydroxycyclodextrin in water and administered by oral gavage in a volume of 0.2 mL daily (15 minutes prior to the EE gavage). Groups of 6 rats are also given vehicle as a negative control and EE alone as a positive control. The animals are fasted overnight following the final dose. On the following morning, the animals are weighed and then euthanized (by carbon dioxide asphyxiation) and the uteri are rapidly collected (via a midline ventral incision), stripped of adipose tissue, removed luminal fluid by blotting onto absorbant paper, and weighed.
Uterine weight/body weight ratios (UWR) are calculated for each animal. The percentage inhibition of the estrogen-induced response is then calculated by the following formula: percent inhibition=100×(UWREE−UWRtest compound/UWREE−UWRcontrol). ED50 values are derived from a semi-log regression analysis of the linear aspect of the dose response curve.

[4] = test system: ovariectomized SD female rats (uterine wet weight, BMC, BMD); assay: 8-Week Mature OVX Rat Uterine and Bone Effects; type: in vivo
Experimental: 8-Week Mature OVX Rat Uterine and Bone Effects
Virgin 6-month-old, SD female rats (Harlan, Ind.) weighing about 270 g are randomized to treatment groups and bilateral ovariectomies are performed using isoflurane anesthesia. Treatment is initiated 3 days after ovariectomy. Groups are orally dosed each day for 8 weeks with GS II mesylate in a vehicle of 20% hydroxypropyl-β-cyclodextrin (Aldrich Chemical Co., Milwaukee, Wis.). Vertebrae and femora are excised at necropsy and the mid-transverse section of the lumbar vertebra L-4 and distal femur metaphysis is scanned in 50% ethanol/saline, using quantitative computed tomography (QCT) (Research M, Norland/Stratec, Pt. Atkinson, Wis.). Cross-sectional area (X-Area), bone mineral content (BMC, mg), and volumetric BMD (vBMD, mg/cm^3) are quantitated, using voxel dimensions of 148×148×500 μm as previously described (Sato M., Bone, 17:157S-162S, 1995). Bone measurements are carried out by computed tomography (CT) scans on the distal femur metaphysis (cancelous bone measurement) and the […] lumbar vertebrae (Sato, 1995 and Sato, et al., J. Med. Chem., 42:1-24, 1999).

[5] = Salt forms administered to monkeys, blood levels of GS II and its conjugates; type: in vivo; conditions: compared among crystalline acetate, mesylate, lactate and phosphate salts, methanesulfonate
Experimental: Four of these salts (the crystalline acetate, mesylate, lactate and phosphate salts of GS II) were administered to monkeys and blood levels of GS II and its conjugates were measured. […] Some additional physical properties of crystalline non-solvated GS II mesylate are disclosed below in Table 1.

[6] = Thermogravimetric analysis (volatiles / weight loss); type: physicochemical; conditions: 25 to 216° C.
[7] = Moisture adsorption / hygroscopicity; type: physicochemical
[8] = dose as low as 0.01 mg/kg, 8 weeks (distal femur metaphysis)

Sequence of endogenous ER receptors in Ishikawa human endometrial tumor cells (P03372 whole entry): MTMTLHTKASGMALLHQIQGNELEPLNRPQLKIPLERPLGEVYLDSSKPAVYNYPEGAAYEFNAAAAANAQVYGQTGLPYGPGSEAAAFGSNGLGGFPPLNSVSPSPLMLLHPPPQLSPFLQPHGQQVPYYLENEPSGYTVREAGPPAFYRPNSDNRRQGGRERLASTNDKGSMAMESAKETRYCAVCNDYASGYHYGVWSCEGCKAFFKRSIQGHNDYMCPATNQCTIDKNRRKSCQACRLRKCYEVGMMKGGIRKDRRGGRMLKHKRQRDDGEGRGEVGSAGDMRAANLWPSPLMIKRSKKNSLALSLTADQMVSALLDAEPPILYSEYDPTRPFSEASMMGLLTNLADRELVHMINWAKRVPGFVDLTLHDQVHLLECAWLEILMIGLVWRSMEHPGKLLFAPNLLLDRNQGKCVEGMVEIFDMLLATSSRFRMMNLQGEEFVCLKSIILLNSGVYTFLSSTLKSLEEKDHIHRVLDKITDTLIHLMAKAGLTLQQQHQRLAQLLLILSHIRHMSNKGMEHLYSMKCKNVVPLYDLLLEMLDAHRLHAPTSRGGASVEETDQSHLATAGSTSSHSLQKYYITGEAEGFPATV

Row | Molecule | in situ aqueous solubility [1] | Emax [2] [%] | ED50 [3] [mg/kg] | BMC changes in the vertebrae ([4]; 8 weeks, lumbar vertebra) | BMD preservation in the vertebrae ([4]; 8 weeks, lumbar vertebra) | uterine stimulation over OVX control ([4]; 10-mg/kg dose, 8 weeks, in comparison to ovary intact (sham operated) rats) [%] | preservation of BMC [4, 8] | preservation of BMD [4, 8] | Changes in uterine wet weight ([4]; oral daily, after 8 weeks of treatment) | in vivo exposure of GS II (ng hr/ml of GS II and of its conjugates) ([5]; listed as crystalline mesylate salt) | in vivo exposure of GS II (ng hr/ml of GS II and of its conjugates) [5] | % Volatiles (Thermo Gravimetric Analysis) [6] | hygroscopicity [7] | % Moisture Adsorbed @80% RH ([7]; 80% RH) [%]
1 | tosylate | relatively low | – | – | – | – | – | – | – | – | – | – | – | – | –
2 | fumarate | relatively low | – | – | – | – | – | – | – | – | – | – | – | – | –
3 | Oc1cccc(-c2ccc3cc(O)ccc3c2Oc2ccc(OCCN3CCCCC3)cc2)c1 [crystalline non-solvated GS II mesylate, 1-(4-(2-piperidinylethoxy)phenoxy)-2-(3-hydroxyphenyl)-6-hydroxynaphthalene, methanesulfonate] | – | 13.8 | 0.22 | statistical significance for BMC changes were not achieved | BMD preservation was also seen | 8.7 | significant preservation | significant preservation | minimal | largest in vivo exposure | significant in vivo exposure | <1% (25 to 216° C.) | non-hygroscopic | <1
